Literature values, collected in patent publication US20180055813A1, “COMPOSITIONS AND METHODS FOR TREATING ATRIAL FIBRILLATION” (Edge Therapeutics, Inc., priority 2016, published 2018).
Read-outs that look alike come from different tables or passages of the source.

What was measured:
[1] = for incidence of postoperative AF: AFIST I, patients >60 years
[2] = test system: high-plateau action potentials
[3] = test system: voltage-dependent sodium channels; settings: relative to phenytoin
N-type calcium current = N-type calcium current (Homo sapiens, UniProt Q00975); settings: at 300 nM to 500 nM
Sequence of N-type calcium current (Q00975 whole entry): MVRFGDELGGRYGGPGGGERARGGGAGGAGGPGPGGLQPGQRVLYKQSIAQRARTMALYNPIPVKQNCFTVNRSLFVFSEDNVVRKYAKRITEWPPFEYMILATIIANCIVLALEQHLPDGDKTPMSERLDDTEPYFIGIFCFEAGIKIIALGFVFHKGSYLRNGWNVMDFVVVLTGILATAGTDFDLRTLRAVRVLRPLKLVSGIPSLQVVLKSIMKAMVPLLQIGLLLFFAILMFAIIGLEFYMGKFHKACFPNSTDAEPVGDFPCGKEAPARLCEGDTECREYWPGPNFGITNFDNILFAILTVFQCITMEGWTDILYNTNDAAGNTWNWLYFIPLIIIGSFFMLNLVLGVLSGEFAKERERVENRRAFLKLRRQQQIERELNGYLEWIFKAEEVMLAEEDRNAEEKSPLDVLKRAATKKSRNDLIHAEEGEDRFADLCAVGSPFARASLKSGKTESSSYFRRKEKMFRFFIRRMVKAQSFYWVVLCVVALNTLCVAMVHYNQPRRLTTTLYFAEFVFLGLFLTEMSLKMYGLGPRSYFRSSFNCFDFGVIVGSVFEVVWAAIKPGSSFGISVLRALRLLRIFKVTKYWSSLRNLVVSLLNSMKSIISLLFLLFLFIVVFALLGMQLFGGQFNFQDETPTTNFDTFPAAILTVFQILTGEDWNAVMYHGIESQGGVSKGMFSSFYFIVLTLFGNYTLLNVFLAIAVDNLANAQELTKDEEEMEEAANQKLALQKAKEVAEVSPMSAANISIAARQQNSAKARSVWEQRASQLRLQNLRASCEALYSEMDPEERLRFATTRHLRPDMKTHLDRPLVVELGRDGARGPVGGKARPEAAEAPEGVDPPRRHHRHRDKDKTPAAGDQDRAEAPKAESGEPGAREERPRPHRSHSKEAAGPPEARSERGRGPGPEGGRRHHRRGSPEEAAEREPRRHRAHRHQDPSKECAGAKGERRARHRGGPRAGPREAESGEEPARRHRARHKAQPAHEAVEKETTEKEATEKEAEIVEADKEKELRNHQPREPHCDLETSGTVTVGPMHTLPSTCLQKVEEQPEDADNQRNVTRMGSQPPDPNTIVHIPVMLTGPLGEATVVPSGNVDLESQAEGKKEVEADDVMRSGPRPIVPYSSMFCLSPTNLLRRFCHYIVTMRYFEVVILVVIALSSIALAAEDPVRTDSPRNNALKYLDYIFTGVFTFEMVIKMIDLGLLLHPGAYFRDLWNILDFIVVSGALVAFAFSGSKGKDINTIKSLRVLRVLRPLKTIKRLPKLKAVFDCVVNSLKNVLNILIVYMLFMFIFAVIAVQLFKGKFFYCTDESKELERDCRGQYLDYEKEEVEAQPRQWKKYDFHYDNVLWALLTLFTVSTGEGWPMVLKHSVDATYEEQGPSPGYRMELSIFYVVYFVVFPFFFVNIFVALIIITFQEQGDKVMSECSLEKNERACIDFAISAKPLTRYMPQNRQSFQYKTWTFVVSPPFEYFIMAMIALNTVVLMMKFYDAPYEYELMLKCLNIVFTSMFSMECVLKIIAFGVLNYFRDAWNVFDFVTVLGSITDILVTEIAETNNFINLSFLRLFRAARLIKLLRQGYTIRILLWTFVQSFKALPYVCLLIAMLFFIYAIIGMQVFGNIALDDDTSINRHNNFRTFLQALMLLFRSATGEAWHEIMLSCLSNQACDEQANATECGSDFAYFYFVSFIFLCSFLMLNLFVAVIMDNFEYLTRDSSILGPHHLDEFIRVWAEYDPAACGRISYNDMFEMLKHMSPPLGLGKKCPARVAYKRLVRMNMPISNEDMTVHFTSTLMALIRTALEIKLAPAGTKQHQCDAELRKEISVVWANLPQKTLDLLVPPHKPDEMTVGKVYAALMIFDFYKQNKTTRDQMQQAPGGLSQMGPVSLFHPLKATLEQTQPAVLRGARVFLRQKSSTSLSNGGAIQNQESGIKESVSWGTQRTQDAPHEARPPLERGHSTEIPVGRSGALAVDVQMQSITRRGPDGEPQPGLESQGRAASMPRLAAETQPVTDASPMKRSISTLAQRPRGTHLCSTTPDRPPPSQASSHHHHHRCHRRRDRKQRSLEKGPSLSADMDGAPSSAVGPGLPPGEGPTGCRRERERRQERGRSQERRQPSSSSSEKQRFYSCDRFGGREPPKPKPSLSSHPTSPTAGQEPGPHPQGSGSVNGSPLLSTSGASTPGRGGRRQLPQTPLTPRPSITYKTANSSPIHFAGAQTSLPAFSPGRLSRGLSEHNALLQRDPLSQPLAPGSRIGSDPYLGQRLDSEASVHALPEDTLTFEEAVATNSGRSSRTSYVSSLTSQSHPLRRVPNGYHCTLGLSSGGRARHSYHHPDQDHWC

[4] = test system: K+ and Na+ currents, and L, P/Q and T-type calcium currents
[5] = phase III clinical trials, compared with placebo

CCCCc1oc2ccccc2c1C(=O)c1cc(I)c(OCCN(CC)CC)c(I)c1 [amiodarone]
incidence of postoperative AF, patients ([1]; 1-week pre-operative oral regimen, placebo 53%): 25% | incidence of postoperative AF ([1]; amiodarone alone): 35% | incidence of postoperative AF ([1]; amiodarone with concomitant postoperative β-blockers): 16% | incidence of postoperative AF, patients ([1]; postoperative intravenous treatment, placebo 47%): 35% | incidence of postoperative AF, patients ([1]; treatment throughout the peri-operative period, placebo 25%): 16%

Cc1oc2ccccc2c1Cc1cc(I)c(OCC(=O)O)c(I)c1 [KB130015, 2-methyl-3-(3,5-diiodo-4-carboxymethoxybenzyl)benzofuran]
QT lengthening / prolongation of high-plateau action potentials [2]: devoid of QT lengthening effects

NC(=O)N1c2ccccc2C=Cc2ccccc21 [carbamazepine]
faster rate of binding to depolarized channels compared to phenytoin [3]: 5 fold | lower affinity for depolarized channels compared to phenytoin [3]: 3 fold

SNX-482
block of R-type calcium current (R-type calcium current; neurohypophysial nerve endings, 40 nM concentration): blocks | effect on R-type current (R-type calcium current; preparations of the neuronal cell body, retinal ganglion cells and hippocampal pyramidal cells): no significant effect | N-type calcium current blocked (N-type calcium current): 30-50% | effect on K+ and Na+ currents, and L, P/Q and T-type calcium currents [4]: no effect

CCCCc1oc2ccc(NS(C)(=O)=O)cc2c1C(=O)c1ccc(OCCCN(CCCC)CCCC)cc1 [dronedarone, n-(2-butyl-3-(4-(3-dibutylaminopropoxy)-benzoyl)benzofuran-5-yl)-methanesulfonamide]
lowering of risk of AF relapse [5]: 25%

CCCCC1=NC2(CCCC2)C(=O)N1Cc1ccc(-c2ccccc2-c2nnn[nH]2)cc1 [irbesartan]
prevention of recurrence of AF (irbesartan plus amiodarone versus amiodarone alone): more effectively than amiodarone alone

CCOC(=O)[C@H](CCc1ccccc1)N[C@@H](C)C(=O)N1CCC[C@H]1C(=O)O [enalapril]
relative risk reduction for the development of AF (compared to placebo): 78%
